From PubChem BioAssay AID248 (DTP/NCI, 2004)
Several values for one entry are separate records, joined by “and”; a condition that tells them apart may be missing. Identical values can stand only once. Toxic doses and inconclusive results are not listed. No stated cut-off is given here; in the data, active means T/C of 150% or more; inactive means T/C below 125%.

System: L1210 leukemia ip in BDF1 mice, survival T/C
Assay: NCI In Vivo Anticancer Drug Screen. Data for tumor model L1210 Leukemia (intraperitoneal) in B6D2F1 (BDF1) mice
Settings: endpoint: mean survival time, higher = longer survival
In short: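 Transplanted-tumor mice were given test agent; controls received vehicle only. Survival readings from the two groups were divided (treated over control).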

[1] = dose: 100.0 mg/kg/injection, schedule: Q04DX003 (ip), vehicle: saline
[2] = dose: 100.0 mg/kg/injection, schedule: Q01DX001 (ip), vehicle: saline with Tween-80
[3] = dose: 100.0 mg/kg/injection, schedule: Q01DX009 (ip), vehicle: saline with Tween-80
[4] = dose: 200.0 mg/kg/injection, schedule: Q01DX001 (ip), vehicle: saline with Tween-80
[5] = dose: 200.0 mg/kg/injection, schedule: Q01DX009 (ip), vehicle: saline with Tween-80
[6] = dose: 400.0 mg/kg/injection, schedule: Q01DX001 (ip), vehicle: saline with Tween-80
[7] = dose: 100.0 mg/kg/injection, schedule: Q01DX001 (ip), vehicle: saline
[8] = dose: 200.0 mg/kg/injection, schedule: Q01DX001 (ip), vehicle: saline
[9] = dose: 100.0 mg/kg/injection, schedule: Q04DX002 (ip), vehicle: Klucel (hydroxypropylcellulose) (HPC)
[10] = dose: 10.0 mg/kg/injection, schedule: Q01DX001 (ip), vehicle: Klucel (hydroxypropylcellulose) (HPC)
[11] = dose: 20.0 mg/kg/injection, schedule: Q01DX001 (ip), vehicle: Klucel (hydroxypropylcellulose) (HPC)
[12] = dose: 100.0 mg/kg/injection, schedule: Q01DX009 (ip), vehicle: Klucel (hydroxypropylcellulose) (HPC)
[13] = dose: 100.0 mg/kg/injection, schedule: Q04DX003 (ip), vehicle: Klucel (hydroxypropylcellulose) (HPC)
[14] = dose: 200.0 mg/kg/injection, schedule: Q01DX009 (ip), vehicle: Klucel (hydroxypropylcellulose) (HPC)
[15] = dose: 200.0 mg/kg/injection, schedule: Q04DX003 (ip), vehicle: Klucel (hydroxypropylcellulose) (HPC)
[16] = dose: 400.0 mg/kg/injection, schedule: Q04DX003 (ip), vehicle: Klucel (hydroxypropylcellulose) (HPC)
[17] = dose: 400.0 mg/kg/injection, schedule: Q01DX001 (ip), vehicle: saline
[18] = dose: 100.0 mg/kg/injection, schedule: Q01DX001 (ip), vehicle: Klucel (hydroxypropylcellulose) (HPC)

Measured: T/C

COc1ccc(C(=O)NC[n+]2ccccc2)cc1
inactive: dose: 25.0 mg/kg/injection, schedule: Q01DX009 (ip), vehicle: saline 93 % of control | dose: 25.0 mg/kg/injection, schedule: Q04DX003 (ip), vehicle: saline 86 % of control | dose: 50.0 mg/kg/injection, schedule: Q01DX009 (ip), vehicle: saline 98 % of control | dose: 50.0 mg/kg/injection, schedule: Q04DX003 (ip), vehicle: saline 93 % of control | [1] 99 % of control

COc1c(C)c(C)c(OC)c(Br)c1C
inactive: [2] 98 % of control | [3] 95 % of control | [4] 102 % of control | [5] 98 % of control | [6] 98 % of control | dose: 400.0 mg/kg/injection, schedule: Q01DX009 (ip), vehicle: saline with Tween-80 106 % of control

CCOC(=N)c1nnn(Cc2ccccc2)c1N
inactive: [7] 89 % of control | [8] 89 % of control

CC1(C)N=C(N)N=C(N)N1c1cccc(C(=O)c2ccccc2)c1
inactive: dose: 25.0 mg/kg/injection, schedule: Q01DX001 (ip), vehicle: saline with Tween-80 98 % of control | dose: 50.0 mg/kg/injection, schedule: Q01DX001 (ip), vehicle: saline with Tween-80 90 % of control

CNC(=O)C1C(c2ccccc2)C1c1ccc(C)cc1 (stereo not drawn)
inactive: [9] 88 % of control | dose: 200.0 mg/kg/injection, schedule: Q04DX002 (ip), vehicle: Klucel (hydroxypropylcellulose) (HPC) 92 % of control | dose: 400.0 mg/kg/injection, schedule: Q04DX002 (ip), vehicle: Klucel (hydroxypropylcellulose) (HPC) 103 % of control

CC1(C)N=C(N)N=C(N)N1c1cccc(OCCOc2ccccc2[N+](=O)[O-])c1
inactive: [10] 108 % of control | dose: 10.0 mg/kg/injection, schedule: Q01DX009 (ip), vehicle: Klucel (hydroxypropylcellulose) (HPC) 98 % of control and 101 % of control | dose: 10.0 mg/kg/injection, schedule: Q04DX002 (ip), vehicle: Klucel (hydroxypropylcellulose) (HPC) 94 % of control and 90 % of control | dose: 10.0 mg/kg/injection, schedule: Q04DX003 (ip), vehicle: Klucel (hydroxypropylcellulose) (HPC) 96 % of control | [11] 104 % of control | dose: 20.0 mg/kg/injection, schedule: Q01DX009 (ip), vehicle: Klucel (hydroxypropylcellulose) (HPC) 102 % of control and 108 % of control | dose: 20.0 mg/kg/injection, schedule: Q04DX002 (ip), vehicle: Klucel (hydroxypropylcellulose) (HPC) 101 % of control and 120 % of control | dose: 20.0 mg/kg/injection, schedule: Q04DX003 (ip), vehicle: Klucel (hydroxypropylcellulose) (HPC) 100 % of control | dose: 40.0 mg/kg/injection, schedule: Q01DX001 (ip), vehicle: Klucel (hydroxypropylcellulose) (HPC) 101 % of control | dose: 40.0 mg/kg/injection, schedule: Q01DX009 (ip), vehicle: Klucel (hydroxypropylcellulose) (HPC) 104 % of control and 108 % of control | dose: 40.0 mg/kg/injection, schedule: Q04DX002 (ip), vehicle: Klucel (hydroxypropylcellulose) (HPC) 94 % of control and 90 % of control | dose: 40.0 mg/kg/injection, schedule: Q04DX003 (ip), vehicle: Klucel (hydroxypropylcellulose) (HPC) 102 % of control

CCOC(=O)/C(C#N)=C\C=C\c1ccccc1
inactive: [12] 92 % of control | [13] 96 % of control | [14] 98 % of control | [15] 98 % of control | [16] 102 % of control

COC(=O)C1CC2c3[nH]c4ccccc4c3CCN2C1 (stereo not drawn)
inactive: [13] 94 % of control | [15] 92 % of control

CNC(=O)CO
inactive: [1] 98 % of control | dose: 200.0 mg/kg/injection, schedule: Q04DX003 (ip), vehicle: saline 103 % of control | dose: 400.0 mg/kg/injection, schedule: Q04DX003 (ip), vehicle: saline 92 % of control

CNc1ccc(C(=O)O)cc1I
inactive: [12] 100 % of control | [13] 94 % of control | [14] 94 % of control | [15] 103 % of control | dose: 400.0 mg/kg/injection, schedule: Q01DX009 (ip), vehicle: Klucel (hydroxypropylcellulose) (HPC) 94 % of control | [16] 96 % of control

O=C(CC(=O)C(F)(F)C(F)(F)C(F)(F)F)c1csc2ccccc12
inactive: dose: 8.0 mg/kg/injection, schedule: Q01DX015 (ip), vehicle: saline 87 % of control | dose: 12.5 mg/kg/injection, schedule: Q01DX009 (ip), vehicle: saline with Tween-80 109 % of control | dose: 16.0 mg/kg/injection, schedule: Q01DX015 (ip), vehicle: saline 87 % of control | dose: 25.0 mg/kg/injection, schedule: Q01DX009 (ip), vehicle: saline with Tween-80 108 % of control | dose: 32.0 mg/kg/injection, schedule: Q01DX015 (ip), vehicle: saline 87 % of control | dose: 50.0 mg/kg/injection, schedule: Q01DX009 (ip), vehicle: saline with Tween-80 96 % of control | dose: 50.0 mg/kg/injection, schedule: Q04DX003 (ip), vehicle: acetone 101 % of control | [7] 104 % of control | [8] 102 % of control

c1ccc(-c2nnnn2-c2ccccc2)cc1
inactive: [2] 102 % of control | [4] 98 % of control | [6] 105 % of control

O=S(=O)(O)SCCCNCCCNCCCSS(=O)(=O)O
inactive: dose: 9.37 mg/kg/injection, schedule: Q01DX009 (ip), vehicle: saline 88 % of control | dose: 18.75 mg/kg/injection, schedule: Q01DX009 (ip), vehicle: saline 87 % of control | dose: 37.5 mg/kg/injection, schedule: Q01DX009 (ip), vehicle: saline 93 % of control | dose: 37.5 mg/kg/injection, schedule: Q04DX003 (ip), vehicle: saline 98 % of control | dose: 75.0 mg/kg/injection, schedule: Q01DX001 (ip), vehicle: saline 102 % of control | dose: 75.0 mg/kg/injection, schedule: Q04DX003 (ip), vehicle: saline 93 % of control | dose: 150.0 mg/kg/injection, schedule: Q01DX001 (ip), vehicle: saline 96 % of control

CC(CCN)(CCN)[N+](=O)[O-]
inactive: [7] 98 % of control | [8] 92 % of control | [17] 93 % of control

COc1cc2c(cc1OC)CN1CCC(=O)CC1C2 (stereo not drawn)
inactive: [2] 107 % of control | [4] 102 % of control | [6] 106 % of control

O=C1CCC(c2ccccc2)=NN1
inactive: [13] 93 % of control | [15] 95 % of control | [16] 106 % of control

O=C(O)CSCCSCC(=O)O
inactive: dose: 12.5 mg/kg/injection, schedule: Q04DX002 (ip), vehicle: carboxymethylcellulose (CMC) 95 % of control | dose: 25.0 mg/kg/injection, schedule: Q04DX002 (ip), vehicle: carboxymethylcellulose (CMC) 97 % of control | dose: 50.0 mg/kg/injection, schedule: Q04DX002 (ip), vehicle: carboxymethylcellulose (CMC) 98 % of control | [3] 104 % of control | [5] 94 % of control and 91 % of control

CC(=O)[O][Hg][c]1c(N)c(Cl)cc(C)c1F
inactive: [10] 101 % of control | [11] 86 % of control

CCCn1/c(=N\N=O)sc2ccccc21
inactive: [13] 93 % of control | [15] 95 % of control | [16] 92 % of control

C1CCC(=C(C2CCCC2)C2CCCC2)C1
inactive: dose: 75.0 mg/kg/injection, schedule: Q04DX002 (ip), vehicle: saline with Tween-80 105 % of control | dose: 150.0 mg/kg/injection, schedule: Q04DX002 (ip), vehicle: saline with Tween-80 99 % of control | dose: 300.0 mg/kg/injection, schedule: Q04DX002 (ip), vehicle: saline with Tween-80 99 % of control

NC(=O)c1nnc(-c2ccccn2)[nH]c1=O
inactive: [18] 93 % of control

CCOC(=O)N1C=Cc2c(c3ccccc3n2C)N1C(=O)OCC
inactive: [7] 93 % of control | [8] 104 % of control | [17] 100 % of control

O=[N+]([O-])c1ccc(N/N=C2\Cc3ccccc3Cc3ccccc32)c([N+](=O)[O-])c1
inactive: dose: 50.0 mg/kg/injection, schedule: Q01DX001 (ip), vehicle: Klucel (hydroxypropylcellulose) (HPC) 90 % of control | [18] 98 % of control | dose: 200.0 mg/kg/injection, schedule: Q01DX001 (ip), vehicle: Klucel (hydroxypropylcellulose) (HPC) 90 % of control

CC(=O)OC(C)C(C)Br (stereo not drawn)
inactive: dose: 50.0 mg/kg/injection, schedule: Q04DX002 (ip), vehicle: Klucel (hydroxypropylcellulose) (HPC) 93 % of control | dose: 100.0 mg/kg/injection, schedule: Q01DX001 (ip), vehicle: acetone 89 % of control | [9] 100 % of control | dose: 200.0 mg/kg/injection, schedule: Q01DX001 (ip), vehicle: acetone 92 % of control
